molecular target: hCereblon(M1-L442)_hDDB1(M1-H1140) (Homo sapiens (Human), UniProt Q96SW2); test: Fluorescence direct binding protocol (tryptophan fluorescence titration); conditions: fluorescence titration at 20° C., excited at 280 nm, recorded at 340 nm; protein 5.0 E−8 M; assay buffer 50 mM Hepes 7.4 200 mM NaCl; read-out: Fluorescence h-Cereblon_DDB1 Mean Kd_EQ
Method in brief: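 At 20° C., protein at constant concentration was titrated with ligand in DMSO over at least 12 steps, exciting tryptophan at 280 nm and reading emission at 340 nm. Intensities were corrected for dilution and filter effect, and Kd was fitted assuming 1:1 binding.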

Sequence of hCereblon(M1-L442)_hDDB1(M1-H1140) (Q96SW2 whole entry): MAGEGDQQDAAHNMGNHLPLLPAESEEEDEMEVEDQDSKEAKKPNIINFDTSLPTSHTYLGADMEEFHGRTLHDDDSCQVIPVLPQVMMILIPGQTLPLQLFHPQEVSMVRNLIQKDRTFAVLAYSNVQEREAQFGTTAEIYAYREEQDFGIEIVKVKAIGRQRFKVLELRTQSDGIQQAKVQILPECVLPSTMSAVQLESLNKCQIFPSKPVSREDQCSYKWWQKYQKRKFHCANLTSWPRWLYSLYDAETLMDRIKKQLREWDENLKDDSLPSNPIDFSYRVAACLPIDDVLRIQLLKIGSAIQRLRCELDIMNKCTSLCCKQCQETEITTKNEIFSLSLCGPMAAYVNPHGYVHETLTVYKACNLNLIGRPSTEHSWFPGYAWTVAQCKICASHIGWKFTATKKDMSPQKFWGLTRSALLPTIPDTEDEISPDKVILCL
Sequence of hCereblon(M1-L442)_hDDB1(M1-H1140) (Q16531 whole entry partner): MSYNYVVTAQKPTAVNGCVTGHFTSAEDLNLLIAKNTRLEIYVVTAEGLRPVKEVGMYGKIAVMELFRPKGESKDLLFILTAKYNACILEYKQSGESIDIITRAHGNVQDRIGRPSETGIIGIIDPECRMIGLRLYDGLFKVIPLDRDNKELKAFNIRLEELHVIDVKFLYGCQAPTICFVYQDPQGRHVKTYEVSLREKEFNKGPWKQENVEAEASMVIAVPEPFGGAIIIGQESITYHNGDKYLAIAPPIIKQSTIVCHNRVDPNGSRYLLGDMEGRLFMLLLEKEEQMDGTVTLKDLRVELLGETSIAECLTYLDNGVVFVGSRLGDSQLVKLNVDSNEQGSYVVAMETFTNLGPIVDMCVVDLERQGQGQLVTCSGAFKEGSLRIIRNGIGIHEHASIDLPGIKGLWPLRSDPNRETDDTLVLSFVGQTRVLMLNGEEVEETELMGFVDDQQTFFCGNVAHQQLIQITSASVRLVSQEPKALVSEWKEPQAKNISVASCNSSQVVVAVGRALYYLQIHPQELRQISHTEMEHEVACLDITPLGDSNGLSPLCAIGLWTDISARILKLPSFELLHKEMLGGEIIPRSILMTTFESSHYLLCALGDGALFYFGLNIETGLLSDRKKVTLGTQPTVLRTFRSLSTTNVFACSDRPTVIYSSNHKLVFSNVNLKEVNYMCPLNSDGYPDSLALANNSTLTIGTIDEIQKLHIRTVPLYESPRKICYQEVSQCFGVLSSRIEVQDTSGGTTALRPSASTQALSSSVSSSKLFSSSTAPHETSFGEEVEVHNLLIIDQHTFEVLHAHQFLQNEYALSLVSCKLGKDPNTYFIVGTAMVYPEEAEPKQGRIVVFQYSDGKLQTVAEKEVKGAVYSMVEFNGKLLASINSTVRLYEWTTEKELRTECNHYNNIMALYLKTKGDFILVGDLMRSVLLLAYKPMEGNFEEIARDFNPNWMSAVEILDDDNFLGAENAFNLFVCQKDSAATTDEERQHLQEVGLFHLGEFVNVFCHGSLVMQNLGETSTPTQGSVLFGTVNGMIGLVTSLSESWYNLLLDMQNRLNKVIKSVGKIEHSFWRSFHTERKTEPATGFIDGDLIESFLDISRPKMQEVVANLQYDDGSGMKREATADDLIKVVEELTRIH

Compound	Kd
COC(=O)c1ccc2nc(C(C)C)n(-c3ccc4[nH]c(=O)[nH]c4c3)c2c1 [Example 48, Methyl 2-isopropyl-2′-oxo-2′,3′-dihydro-1′H-[1,5′-bibenzo[d]imidazole]-6-carboxylate]	11 nM
CNC(=O)c1ccc2c(c1)nc(C(C)C)n2-c1cnc2[nH]c(=O)[nH]c2c1 [Example 79, 2-Isopropyl-N-methyl-1-(2-oxo-1,3-dihydroimidazo[4,5-b]pyridin-6-yl)benzimidazole-5-carboxamide]	4 nM
CNC(=O)c1ccc2c(c1)nc(Cc1cccc(OC)c1)n2-c1ccc2[nH]c(=O)[nH]c2c1 [Example 28, 2-(3-Methoxybenzyl)-N-methyl-2′-oxo-2′,3′-dihydro-1′H-[1,5′-bibenzo[d]imidazole]-5-carboxamide]	12 nM
O=C(Nc1cccc(-c2cnco2)c1)c1ccc2[nH]c(=O)[nH]c2c1 [Example 142, N-(3-(Oxazol-5-yl)phenyl)-2-oxo-2,3-dihydro-1H-benzo[d]imidazole-5-carboxamide]	11 nM
O=C(Nc1ccc2[nH]c(=O)[nH]c2c1)N1CCc2ccc(Cl)cc21 [Example 129, 6-Chloro-N-(2-oxo-2,3-dihydro-1H-benzo[d]imidazol-5-yl)indoline-1-carboxamide]	188 nM
COc1ccc(Cc2ccc3[nH]c(=O)[nH]c3c2)cc1 [Example 39, 5-[(4-Methoxyphenyl)methyl]-1,3-dihydrobenzimidazol-2-one]	6 nM
O=C(Nc1ccccc1)c1ccc2[nH]c(=O)[nH]c2c1 [Example 77, 2-Oxo-N-phenyl-2,3-dihydro-1H-benzo[d]imidazole-5-carboxamide]	42 nM
CNC(=O)CCc1nc2ccccc2n1-c1ccc2[nH]c(=O)[nH]c2c1 [Example 81, N-Methyl-3-[1-(2-oxo-1,3-dihydrobenzimidazol-5-yl)benzimidazol-2-yl]propanamide]	4 nM
O=C1CCCN1c1ccc2[nH]c(=O)[nH]c2c1 [Example 33, 5-(2-Oxopyrrolidin-1-yl)-1,3-dihydro-2H-benzo[d]imidazol-2-one]	24 nM
COC(=O)c1ccc(Nc2ccc3[nH]c(=O)[nH]c3c2)c(N)c1 [Example 9, Methyl 3-amino-4-((2-oxo-2,3-dihydro-1H-benzo[d]imidazol-5-yl)amino)benzoate]	29 nM
CC(=O)NCCC(=O)Nc1ccc2[nH]c(=O)[nH]c2c1 [Example 90, 3-Acetamido-N-(2-oxo-2,3-dihydro-1H-benzo[d]imidazol-5-yl)propanamide]	19 nM
Cn1cncc1-c1cc(-c2nc3ccccc3n2-c2ccc3[nH]c(=O)[nH]c3c2)c2ccccc2n1 [Example 8, 2-(2-(1-Methyl-1H-imidazol-5-yl)quinolin-4-yl)-1′H-[1,5′-bibenzo[d]imidazol]-2′(3′H)-one]	6 nM
O=C(Nc1ccc2[nH]c(=O)[nH]c2c1)[C@@H]1CCCc2ccccc21 [Example 72, (R)—N-(2-Oxo-2,3-dihydro-1H-benzo[d]imidazol-5-yl)-1,2,3,4-tetrahydronaphthalene-1-carboxamide]	14 nM

Second part, the molecule after the results:

Kd	Compound
29 nM	NS(=O)(=O)c1ccc(C(=O)Nc2ccc3[nH]c(=O)[nH]c3c2)cc1 [Example 100, N-(2-Oxo-2,3-dihydro-1H-benzo[d]imidazol-5-yl)-4-sulfamoylbenzamide]
68 nM	O=c1[nH]c2ccc(-c3ccnc(Cl)c3)cc2[nH]1 [Example 20, 5-(2-Chloropyridin-4-yl)-1H-benzo[d]imidazol-2(3H)-one]
7 nM	CNC(=O)c1ccc2c(c1)nc(-c1cccc(COC)c1)n2-c1ccc2[nH]c(=O)[nH]c2c1 [Example 57, 2-(3-(Methoxymethyl)phenyl)-N-methyl-2′-oxo-2′,3′-dihydro-1′H-[1,5′-bibenzo[d]imidazole]-5-carboxamide]
113 nM	CC(C)(C)OC(=O)Nc1ccc2c(c1)CCN2C(=O)Nc1ccc2[nH]c(=O)[nH]c2c1 [Example 119, tert-Butyl (1-((2-oxo-2,3-dihydro-1H-benzo[d]imidazol-5-yl)carbamoyl)indolin-5-yl)carbamate]
45 nM	CNC(=O)c1ccc2c(c1)nc(C1CCOCC1)n2-c1ccc2[nH]c(=O)[nH]c2c1 [Example 64, N-Methyl-2′-oxo-2-(tetrahydro-2H-pyran-4-yl)-2′,3′-dihydro-1′H-[1,5′-bibenzo[d]imidazole]-5-carboxamide]
7 nM	O=c1[nH]c2ccc(N3CCN(c4ccccn4)CC3)nc2[nH]1 [Example 40, 5-[4-(2-Pyridyl)piperazin-1-yl]-1,3-dihydroimidazo[4,5-b]pyridin-2-one]
< 1 nM	O=C(NCc1ccccc1)Nc1ccc2[nH]c(=O)[nH]c2c1 [Example 94, 1-Benzyl-3-(2-oxo-2,3-dihydro-1H-benzo[d]imidazol-5-yl)urea]
3 nM	CC(=O)N1CCC(NC(=O)c2ccc3[nH]c(=O)[nH]c3c2)CC1 [Example 23, N-(1-Acetylpiperidin-4-yl)-2-oxo-2,3-dihydro-1H-benzo[d]imidazole-5-carboxamide]
107 nM	CNC(=O)c1ccc2c(c1)nc(-c1ccnc(OC)c1)n2-c1ccc2[nH]c(=O)[nH]c2c1 [Example 108, 2-(2-Methoxypyridin-4-yl)-N-methyl-2′-oxo-2′,3′-dihydro-1′H-[1,5′-bibenzo[d]imidazole]-5-carboxamide]
1 nM	O=c1[nH]c2ccc(-n3ccnc3-c3ccnc4ccccc34)cc2[nH]1 [Example 12, 5-(2-(Quinolin-4-yl)-1H-imidazol-1-yl)-1H-benzo[d]imidazol-2(3H)-one]
180 nM	CNC(=O)c1ccc2c(c1)nc(C)n2-c1ccc2[nH]c(=O)[nH]c2c1 [Example 5, N,2-Dimethyl-2′-oxo-2′,3′-dihydro-1′H-[1,5′-bibenzo[d]imidazole]-5-carboxamide]
6 nM	Cn1c(=O)[nH]c2ccc(Nc3ccccc3N)cc21 [Example 52, 6-((2-Aminophenyl)amino)-1-methyl-1,3-dihydro-2H-benzo[d]imidazol-2-one]
16 nM	CN(C)C(=O)c1ccc2c(c1)nc(-c1cc(-c3cncn3C)nc3ccccc13)n2-c1ccc2[nH]c(=O)[nH]c2c1 [Example 18, N,N-Dimethyl-2-(2-(1-methyl-1H-imidazol-5-yl)quinolin-4-yl)-2′-oxo-2′,3′-dihydro-1′H-[1,5′-bibenzo[d]imidazole]-5-carboxamide]
103 nM	CC(=O)N1CCN(C(=O)c2ccc3[nH]c(=O)[nH]c3c2)CC1 [Example 22, 5-(4-Acetylpiperazine-1-carbonyl)-1H-benzo[d]imidazol-2(3H)-one]
9 nM	CNC(=O)c1ccc2c(c1)nc(-c1cn(C)cn1)n2-c1ccc2[nH]c(=O)[nH]c2c1 [Example 65, N-Methyl-2-(1-methyl-1H-imidazol-4-yl)-2′-oxo-2′,3′-dihydro-1′H-[1,5′-bibenzo[d]imidazole]-5-carboxamide]
8 nM	CNC(=O)c1ccc2c(c1)nc(-c1ccncc1)n2-c1ccc2[nH]c(=O)[nH]c2c1 [Example 11, N-Methyl-2′-oxo-2-(pyridin-4-yl)-2′,3′-dihydro-1′H-[1,5′-bibenzo[d]imidazole]-5-carboxamide]
11 nM	CNC(=O)c1ccc2c(c1)nc(C(C)C)n2-c1ccc2[nH]c(=O)[nH]c2c1 [Example 16, 2-Isopropyl-N-methyl-2′-oxo-2′,3′-dihydro-1′H-[1,5′-bibenzo[d]imidazole]-5-carboxamide]

From US11787802B2, “Dihydrobenzimidazolones for medical treatment” (C4 Therapeutics, Inc., priority 2017, dated 2023)
